Laboratory results taken from ChEMBL document CHEMBL1201862, “PubChem BioAssay data set” (2004).
Calls of active or inactive are those of the source.

Experiments:
Vero [1] = test: cytotoxicity of synthesized analogs in Vero 76, SAR follow-up, cytotoxicity control for West Nile virus antiviral project, Vero 76 cells (AID 2414); format: functional; details: Chlorocebus sabaeus
Vero [2] = test: cytotoxicity of synthesized analogs in Vero cells, SAR follow-up, cytotoxicity control for West Nile virus antiviral project, cell-based, set II (AID 2402); format: functional; details: Chlorocebus sabaeus
Vero [3] = test: Vero E6 cell cytotoxicity, SAR follow-up, cytotoxicity control for West Nile virus antiviral project, synthesized analogs (AID 2244); format: functional; details: Chlorocebus sabaeus
[4] = A Cell Based Assay for the Identification of Probe candidate Compounds with Anti- Venezuelan Equine Encephalitis virus. [Related pubchem assays: 2409, 2419, 1621, 2238, 2405, 2024, 2065, 2402, 2414, 1635, 1650, 2244 ]; format: functional
Vero [5] = test: West Nile virus CPE inhibition, SAR follow-up, cell-based, synthesized analogs (AID 2238); format: functional; details: Chlorocebus sabaeus
[6] = target: T1, Ubiquitin-conjugating enzyme E2 N (Homo sapiens, UniProt P61088); format: functional;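 further: Dose-response confirmation in a TR-FRET assay detecting UBC13-driven polyubiquitin chain formation, inhibition measured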
T1 sequence (P61088 whole entry): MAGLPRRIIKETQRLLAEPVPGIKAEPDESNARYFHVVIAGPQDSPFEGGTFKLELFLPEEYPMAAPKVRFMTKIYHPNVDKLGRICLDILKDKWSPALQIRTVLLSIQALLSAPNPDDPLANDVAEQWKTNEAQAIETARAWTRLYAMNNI

[7] = microbe, parasite or virus in culture; format: functional; details: Mycobacterium tuberculosis
[8] = THP-1 cell cytotoxicity, dose response, cytotoxicity control for non-replicating M. tuberculosis project (AID 489025); format: functional
[9] = HepG2 cell cytotoxicity, dose response, cytotoxicity control for non-replicating M. tuberculosis project (AID 489018); format: functional; details: Mycobacterium tuberculosis
cells = format: functional
[10] = Shn3 3'UTR reporter inhibitors, dose response, cell-based, Clone20 osteoblasts, firefly luciferase, cherry-picked (AID 624132); format: functional;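 further: firefly luciferase luminescence from reporter carrying the Shn3 3'UTR in osteoblasts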
[11] = HepG2 cell cytotoxicity, dose response, cytotoxicity control for Shn3 inhibitor project, CellTiter-Glo, cherry-picked (AID 624134); format: functional, cell-based
[12] = control 3'UTR Renilla luciferase suppression, dose response, counter-screen for Shn3 inhibitor project, cell-based, Clone20-Shn3RL, cherry-picked (AID 624133); format: functional
[13] = HeLa cell cytotoxicity, dose response, cytotoxicity control for MgcRacGAP inhibitor project (AID 624300); format: functional
[14] = target: T2, Rac GTPase-activating protein 1 (Homo sapiens, UniProt Q9H0H5); test: MgcRacGAP GTPase-activating activity inhibitors, confirmation, biochemical, ADP Hunter fluorescence, primary and confirmatory (AID 624330); format: functional
T2 sequence (Q9H0H5 whole entry): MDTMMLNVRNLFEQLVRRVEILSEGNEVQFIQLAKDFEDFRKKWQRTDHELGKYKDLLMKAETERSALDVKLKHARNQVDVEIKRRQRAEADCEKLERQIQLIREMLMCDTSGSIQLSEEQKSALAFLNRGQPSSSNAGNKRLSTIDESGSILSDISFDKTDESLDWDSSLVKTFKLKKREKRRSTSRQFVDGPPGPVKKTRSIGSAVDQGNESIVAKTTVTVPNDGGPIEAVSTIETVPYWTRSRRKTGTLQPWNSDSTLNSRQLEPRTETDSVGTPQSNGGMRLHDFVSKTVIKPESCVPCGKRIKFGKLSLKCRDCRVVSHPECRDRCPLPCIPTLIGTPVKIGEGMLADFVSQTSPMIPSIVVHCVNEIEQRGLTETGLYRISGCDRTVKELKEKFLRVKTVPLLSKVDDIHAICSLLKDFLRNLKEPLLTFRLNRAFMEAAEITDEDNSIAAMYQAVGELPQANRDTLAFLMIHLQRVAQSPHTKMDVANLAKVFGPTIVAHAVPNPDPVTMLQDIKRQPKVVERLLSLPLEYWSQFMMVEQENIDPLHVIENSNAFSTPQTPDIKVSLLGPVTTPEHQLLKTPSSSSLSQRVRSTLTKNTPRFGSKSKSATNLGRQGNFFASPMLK

[15] = A549 cell cytotoxicity, dose response, cytotoxicity control, plate reader, cherry-pick, antagonist series (AID 743412); format: functional, cell-based
[16] = HepG2 cell cytotoxicity, dose response, cytotoxicity control, plate reader, cherry-pick, antagonist series (AID 743416); format: functional, cell-based
[17] = LGR2 antagonists, dose response, cell-based, HEK293, CRE-luciferase reporter, cherry pick, set 2 (AID 743343); format: functional;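 further: transfected cells were stimulated with diluted bursicon conditioned medium after compound addition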
[18] = MC4R antagonists, dose response, counter-screen for LGR2 antagonist project, cell-based, plate reader, cherry pick (AID 743444); format: functional;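 further: transfected HEK 293 cells stimulated with alpha-MSH peptide; potency of inhibitors of the alpha-MSH evoked signal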
[19] = target: Voltage-dependent T-type calcium channel subunit alpha-1H (Homo sapiens, UniProt O95180); test: Cav3.2 T-type channel inhibitors, cell-based, synthetic library set 1, calcium flux (AID 493022); format: functional
[20] = target: T3, Lysosomal acid glucosylceramidase (Homo sapiens, UniProt P04062); test: Dose response cell-based high throughput screening assay to identify enhancers of beta-glucosidase activity. [Related pubchem assays: 784 ]; format: functional
T3 sequence (P04062 whole entry): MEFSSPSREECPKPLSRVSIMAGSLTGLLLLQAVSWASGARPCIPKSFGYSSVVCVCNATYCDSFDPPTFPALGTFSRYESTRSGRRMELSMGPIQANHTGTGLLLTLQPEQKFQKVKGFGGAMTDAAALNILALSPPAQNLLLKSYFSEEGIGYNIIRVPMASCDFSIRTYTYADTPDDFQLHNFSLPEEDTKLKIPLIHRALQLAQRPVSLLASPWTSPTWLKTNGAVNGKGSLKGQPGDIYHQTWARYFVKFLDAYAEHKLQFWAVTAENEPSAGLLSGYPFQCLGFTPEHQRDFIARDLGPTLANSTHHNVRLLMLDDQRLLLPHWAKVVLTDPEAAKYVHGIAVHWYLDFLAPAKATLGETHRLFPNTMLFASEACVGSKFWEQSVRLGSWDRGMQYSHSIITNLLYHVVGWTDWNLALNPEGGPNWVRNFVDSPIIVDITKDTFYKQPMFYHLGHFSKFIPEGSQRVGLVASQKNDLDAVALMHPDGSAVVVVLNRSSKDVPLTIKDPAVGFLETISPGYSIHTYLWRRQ

[21] = cytotoxicity in HPDE-C7 cells, cell-based, fluorescence, HTS (AID 430); format: functional; details: Homo sapiens
[22] = cytotoxicity in KRAS-transformed pancreatic duct cells, primary screen, cell-based, fluorescence, HTS (AID 431); format: functional; details: Homo sapiens;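 further: cell line used: HPDE-C7K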
[23] = growth suppression of PTEN-null colon cells, dose response, cell-based, HCT116 PTEN knockout (AID 1047); format: functional;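 further: HCT116 colon tumor cells with PTEN knocked out; cells exposed to compound for 60 hours before readout; potency for loss of cell viability measured by luminescence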
[24] = growth suppression of beta-catenin-knockout colon cells, dose response, cell-based, HCT116, human colon tumor (AID 1045); format: functional;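 further: HCT116 colon tumor cells with beta catenin knocked out; cells exposed to compound for 60 hours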
[25] = target: G-protein coupled receptor 55 (Homo sapiens, UniProt Q9Y2T6); test: GPR55 agonists via beta-arrestin recruitment, primary screen, imaging, U2OS cells, beta-arrestin-GFP redistribution (AID 1961); format: functional
Cytochrome P450 2D6 = Cytochrome P450 2D6 (Homo sapiens, UniProt P10635);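 further: CYP2D6 member of a cytochrome P450 panel assay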
Chain of Cytochrome P450 2D6 (P10635 whole entry): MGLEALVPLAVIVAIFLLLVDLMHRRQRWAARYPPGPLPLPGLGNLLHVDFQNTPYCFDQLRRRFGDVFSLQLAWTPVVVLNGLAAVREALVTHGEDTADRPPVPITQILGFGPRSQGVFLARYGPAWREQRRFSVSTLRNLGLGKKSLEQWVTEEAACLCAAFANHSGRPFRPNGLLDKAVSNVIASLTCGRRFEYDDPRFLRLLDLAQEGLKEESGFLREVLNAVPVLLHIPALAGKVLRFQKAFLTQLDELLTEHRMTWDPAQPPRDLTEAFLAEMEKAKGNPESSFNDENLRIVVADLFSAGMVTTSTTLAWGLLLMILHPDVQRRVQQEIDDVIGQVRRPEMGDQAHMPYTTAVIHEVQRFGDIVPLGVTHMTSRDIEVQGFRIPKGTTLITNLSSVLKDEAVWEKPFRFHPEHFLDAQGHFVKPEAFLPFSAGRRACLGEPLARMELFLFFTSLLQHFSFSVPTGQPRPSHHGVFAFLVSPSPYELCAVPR

Chain of Voltage-dependent T-type calcium channel subunit alpha-1H (O95180 whole entry): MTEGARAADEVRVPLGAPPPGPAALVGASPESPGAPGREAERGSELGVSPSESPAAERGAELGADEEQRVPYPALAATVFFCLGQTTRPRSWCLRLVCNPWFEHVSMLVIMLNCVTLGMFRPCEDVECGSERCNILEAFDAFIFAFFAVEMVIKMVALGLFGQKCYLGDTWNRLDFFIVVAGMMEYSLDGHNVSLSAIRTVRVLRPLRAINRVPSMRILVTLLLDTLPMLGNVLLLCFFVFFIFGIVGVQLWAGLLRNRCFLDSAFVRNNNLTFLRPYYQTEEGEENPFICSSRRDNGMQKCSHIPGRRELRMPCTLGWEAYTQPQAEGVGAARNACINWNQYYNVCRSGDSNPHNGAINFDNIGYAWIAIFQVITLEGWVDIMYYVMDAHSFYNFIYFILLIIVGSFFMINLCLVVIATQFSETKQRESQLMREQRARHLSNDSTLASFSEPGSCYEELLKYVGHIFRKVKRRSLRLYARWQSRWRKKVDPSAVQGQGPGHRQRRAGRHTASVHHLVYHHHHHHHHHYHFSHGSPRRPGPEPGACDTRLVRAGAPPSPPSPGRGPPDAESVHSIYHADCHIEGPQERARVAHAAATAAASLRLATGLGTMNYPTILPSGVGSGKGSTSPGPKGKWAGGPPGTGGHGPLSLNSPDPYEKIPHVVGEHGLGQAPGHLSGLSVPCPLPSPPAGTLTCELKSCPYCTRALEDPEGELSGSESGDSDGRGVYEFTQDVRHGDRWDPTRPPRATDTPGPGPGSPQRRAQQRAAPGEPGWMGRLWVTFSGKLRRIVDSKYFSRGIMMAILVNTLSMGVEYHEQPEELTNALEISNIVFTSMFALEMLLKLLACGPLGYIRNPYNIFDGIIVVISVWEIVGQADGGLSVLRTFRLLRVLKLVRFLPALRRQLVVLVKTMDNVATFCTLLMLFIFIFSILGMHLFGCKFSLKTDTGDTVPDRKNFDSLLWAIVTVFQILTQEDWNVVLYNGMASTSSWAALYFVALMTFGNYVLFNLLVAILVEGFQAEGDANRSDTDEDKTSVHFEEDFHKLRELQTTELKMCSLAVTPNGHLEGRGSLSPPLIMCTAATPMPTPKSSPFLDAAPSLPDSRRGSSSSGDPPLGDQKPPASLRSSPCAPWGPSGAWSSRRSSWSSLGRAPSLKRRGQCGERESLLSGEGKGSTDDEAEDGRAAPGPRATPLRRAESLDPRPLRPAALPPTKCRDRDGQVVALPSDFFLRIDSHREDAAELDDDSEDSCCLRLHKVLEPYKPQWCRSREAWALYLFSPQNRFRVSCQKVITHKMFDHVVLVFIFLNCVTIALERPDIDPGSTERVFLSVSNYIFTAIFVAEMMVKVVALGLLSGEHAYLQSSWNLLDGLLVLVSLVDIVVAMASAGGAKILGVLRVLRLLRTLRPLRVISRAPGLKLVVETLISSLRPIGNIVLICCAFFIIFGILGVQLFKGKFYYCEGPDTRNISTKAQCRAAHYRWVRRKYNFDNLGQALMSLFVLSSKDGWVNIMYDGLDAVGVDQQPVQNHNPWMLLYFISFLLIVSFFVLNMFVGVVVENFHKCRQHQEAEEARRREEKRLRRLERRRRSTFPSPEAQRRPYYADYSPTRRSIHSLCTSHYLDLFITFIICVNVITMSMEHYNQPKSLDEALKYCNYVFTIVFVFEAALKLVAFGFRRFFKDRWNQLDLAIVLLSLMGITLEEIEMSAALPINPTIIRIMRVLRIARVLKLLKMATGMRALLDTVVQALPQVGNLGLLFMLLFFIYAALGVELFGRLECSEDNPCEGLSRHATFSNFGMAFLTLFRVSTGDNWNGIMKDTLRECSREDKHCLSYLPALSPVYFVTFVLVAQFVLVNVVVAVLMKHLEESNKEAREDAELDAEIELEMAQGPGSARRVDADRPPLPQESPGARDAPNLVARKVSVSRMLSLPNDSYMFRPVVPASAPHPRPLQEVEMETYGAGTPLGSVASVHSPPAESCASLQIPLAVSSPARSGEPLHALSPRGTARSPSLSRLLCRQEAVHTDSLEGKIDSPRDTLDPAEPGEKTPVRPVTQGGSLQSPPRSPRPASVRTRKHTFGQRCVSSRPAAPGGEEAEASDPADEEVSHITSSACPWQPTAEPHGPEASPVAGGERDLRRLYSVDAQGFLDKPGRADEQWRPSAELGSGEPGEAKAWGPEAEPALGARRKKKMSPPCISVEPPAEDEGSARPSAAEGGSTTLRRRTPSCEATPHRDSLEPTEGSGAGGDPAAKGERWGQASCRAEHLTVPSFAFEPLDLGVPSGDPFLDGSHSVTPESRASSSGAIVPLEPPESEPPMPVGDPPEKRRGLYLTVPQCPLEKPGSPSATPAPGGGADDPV
Chain of G-protein coupled receptor 55 (Q9Y2T6 whole entry): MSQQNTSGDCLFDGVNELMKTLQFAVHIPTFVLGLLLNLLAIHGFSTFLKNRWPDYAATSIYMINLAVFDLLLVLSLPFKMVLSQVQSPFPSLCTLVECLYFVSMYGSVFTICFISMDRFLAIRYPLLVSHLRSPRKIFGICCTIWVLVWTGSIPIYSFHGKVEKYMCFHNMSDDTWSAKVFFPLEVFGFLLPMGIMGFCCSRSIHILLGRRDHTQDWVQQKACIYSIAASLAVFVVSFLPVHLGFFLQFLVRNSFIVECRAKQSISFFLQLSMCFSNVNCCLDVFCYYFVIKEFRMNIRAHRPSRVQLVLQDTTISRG

Q: With `Cc1cccc2c1-c1sc(C(=O)NCCCN3CCC(C)CC3)cc1CO2` as the compound, how does the CC50 (Vero [1]) read?
A: The CC50 was 20 µM (active).

Q: And the CC50 (Vero [2])?
A: Its CC50 is 10.1 µM (active).

Q: What about the CC50 (Vero [3]) of the same compound?
A: Its CC50 is 10 µM (active).

Q: And the IC50 [4]?
A: The IC50 was 8.52 µM (active).

Q: What about the IC50 (Vero [5]) of the same compound?
A: Its IC50 is > 40 µM (active).

Q: What about the IC50 [6] of the same compound?
A: The IC50 was > 20 µM (inactive).

Q: Which CC50 [7] does the source give for `CCn1c2ccccc2c2cc(CNCc3ccc(OC)cc3OC)ccc21` here?
A: The CC50 was 19.3 µM (active).

Q: And the CC50 [8]?
A: Its CC50 is 16.7 µM (active).

Q: What about the CC50 [9] of the same compound?
A: The CC50 was 15.6 µM (active).

Q: What about the IC50 (cells) of the same compound?
A: The IC50 was 12.8 µM (active).

Q: What about the AC50 [10] of the same compound?
A: The AC50 was 14.7 µM (active).

Q: And the AC50 [11]?
A: Its AC50 is 16.9 µM (active).

Q: And the AC50 [12]?
A: Its AC50 is 14.8 µM (active).

Q: What about the CC50 [13] of the same compound?
A: The CC50 was 37 µM (active).

Q: What about the IC50 [14] of the same compound?
A: The IC50 was 99.7 µM (active).

Q: What about the AC50 [15] of the same compound?
A: Its AC50 is 13.6 µM (active).

Q: And the AC50 [16]?
A: The AC50 was 13.8 µM (active).

Q: And the AC50 [17]?
A: Its AC50 is 18.6 µM (active).

Q: What about the AC50 [18] of the same compound?
A: The AC50 was 32.9 µM (active).

Q: With `O=C(COc1ccc(F)cc1)Nc1nnc(-c2ccc3ccccc3c2)o1` as the compound, how does the EC50 [19] read?
A: The EC50 was 3.5 µM (active).

Q: For `FC(F)(F)c1ccc(N2CCOCC2)c(Nc2nc3ccccc3n3cnnc23)c1`, which EC50 [20] is on record?
A: The EC50 was > 50 µM (not active).

Q: And the EC50 [21]?
A: Its EC50 is 5.89 µM (active).

Q: And the CC50 [7]?
A: The CC50 was 27.4 µM (active).

Q: What about the EC50 [22] of the same compound?
A: Its EC50 is 5.98 µM (active).

Q: And the EC50 [23]?
A: Its EC50 is 13.5 µM (active).

Q: What about the EC50 [24] of the same compound?
A: Its EC50 is 16.5 µM (active).

Q: What about the EC50 [25] of the same compound?
A: The EC50 was 4.18 µM (active).

Q: What about the AC50 (Cytochrome P450 2D6) of the same compound?
A: The AC50 was 28.2 µM (inconclusive).
